Experimental data taken from patent US20180000952A1, “ENZYME AND RECEPTOR MODULATION” (GlaxoSmithKline Intellectual Property Development Limited, priority 2005, published 2018).
Where two headings read alike, the source gives them in different places.

How the values were obtained:
[1] = system: TNFα production in human whole blood; assay: LPS-stimulation of human whole blood, TNF-α ELISA; format: cell-based; conditions: for Ratio IC50 WB/enzyme (PI 3-Kinase): whole blood IC50 / PI3-Kinase IC50; for Ratio IC50 WB/enzyme (P38 MAP kinase): whole blood IC50 / P38 MAP kinase IC50
Method: Whole blood was taken by venous puncture using heparinised vacutainers (Becton Dickinson) and diluted in an equal volume of RPMI1640 tissue culture media. 100 μl was plated in V-bottomed 96 well tissue culture plates. Inhibitor was added in 100 μl of RPMI1640 media, and 2 h later the blood was stimulated with LPS (E coli strain 005:B5, Sigma) at a final concentration of 100 ng/ml and incubated at 37° C. in 5% CO2 for 6 h. TNF-α levels were measured from cell-free supernatants by sandwich ELISA (R&D Systems #QTA00B).

U937 cells = assay: Cell proliferation inhibition assay (WST-1), U937; format: cell-based; conditions: for Ratio IC50 cell/enzyme (Aurora kinase): U937 cell IC50 / Aurora kinase A IC50; for selectivity between a monocytic and non-monocytic cell line (cell proliferation): U937 versus HCT116
Method: (§1) Following 24 h of growth cells were treated with compound. Plates were then re-incubated for a further 72-96 h before a WST-1 cell viability assay was conducted according to the suppliers (Roche Applied Science) instructions
(§2) Data were expressed as a percentage inhibition of the control, measured in the absence of inhibitor, as follows;—
(§3) where S^l is the signal in the presence of inhibitor and S^o is the signal in the presence of DMSO.
(§4) Dose response curves were generated from 8 concentrations (top final concentration 10 μM, with 3-fold dilutions), using 6 replicates.

recombinant human DHFR = molecular target: T1, recombinant human DHFR (Homo sapiens, UniProt P00374); assay: Dihydrofolate reductase (DHFR) inhibitory activity assay; format: biochemical
T1 construct: purchased Sigma CS0340
T1 sequence (P00374 1-187): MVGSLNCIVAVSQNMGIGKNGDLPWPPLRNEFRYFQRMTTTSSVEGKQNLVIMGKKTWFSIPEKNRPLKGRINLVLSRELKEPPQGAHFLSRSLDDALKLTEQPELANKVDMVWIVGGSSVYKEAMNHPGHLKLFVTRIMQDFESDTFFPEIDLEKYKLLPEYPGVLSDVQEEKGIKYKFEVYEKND
Method: The ability of compounds to inhibit DHFR activity was measured in an assay based on the ability of DHFR to catalyse the reversible NADPH-dependent reduction of dihydrofolic acid to tetrahydrofolic acid using a Sigma kit (Catalogue number CS0340). This uses proprietary assay buffer and recombinant human DHFR at 7.5×10^−4 Unit per reaction, NADPH at 60 μM and dihydrofolic acid at 50 μM. The reaction was followed by monitoring the decrease in absorbance at 340 nm, for a 2 minute period, at room temperature, and the enzyme activity was calculated as the rate of decrease in absorbance. Enzyme activity, in the presence of inhibitor, was expressed as a percentage of inhibitor-free activity and the inhibitor IC50 was determined from a sigmoidal dose response curve using XIfit software (% activity against log concentration of compound). Each sample was run in triplicate and each dose response curve was composed of 10 dilutions of the inhibitor.

HCT 116 cells = assay: Cell proliferation inhibition assay (WST-1), HCT116; format: cell-based; conditions: for Ratio IC50 Cell/enzyme (HCT116), Table 2: HCT116 cell IC50 / DHFR enzyme IC50
Method: as §1, §2, §3, §4

[2] = system: U937 cell extract (esterase activity); assay: Broken cell carboxylesterase assay, U937 cell extract; format: in vitro ADME; conditions: U937 versus HCT116 broken cell assay
Method: U937 or HCT 116 tumour cells (˜10^9) were washed in 4 volumes of Dulbeccos PBS (˜1 litre) and pelleted at 525 g for 10 min at 4° C. This was repeated twice and the final cell pellet was resuspended in 35 ml of cold homogenising buffer (Trizma 10 mM, NaCl 130 mM, CaCl2 0.5 mM pH 7.0 at 25° C.). Homogenates were prepared by nitrogen cavitation (700 psi for […] at 4° C.). The homogenate was kept on ice and supplemented with a cocktail of Inhibitors at final concentrations of: • Leupeptin 1 μM • Aprotinin 0.1 μM • E64 8 μM • Pepstatin 1.5 μM • Bestatin 162 μM • Chymostatin 33 μM
After clarification of the cell homogenate by centrifugation at 525 g for 10 min, the resulting supernatant was used as a source of esterase activity and was stored at −80° C. until required.
Hydrolysis of esters to the corresponding carboxylic acids can be measured using the cell extract, prepared as above. To this effect cell extract (˜30 μg/total assay volume of 0.5 ml) was incubated at 37° C. in a Tris-HCl 25 mM, 125 mM NaCl buffer, pH 7.5 at 25° C. At zero time the ester (substrate) was then added at a final concentration of 2.5 μM and the samples were incubated at 37° C. for the appropriate time (usually 0 or 80 min). […] After centrifugation at 12000 g for 5 min, samples were analysed for the ester and its corresponding carboxylic acid at room temperature by LCMS (Sciex API 3000, HP1100 binary pump, CTC PAL). […]

[3] = compound as shown (ester or unmodified modulator, or named acid), read-out: IC50 nM enzyme (DHFR)
[4] = enzyme IC50 for the acid resulting from cleavage of the ester shown, read-out: IC50 nM enzyme (acid), figures in brackets

Cc1nc(NC(=O)CC[C@H](N)C(=O)OC2CCCC2)sc1-c1ccc(Cl)c(S(C)(=O)=O)c1 [Compound (21), (S)-2-Amino-4-[5-(4-chloro-3-methanesulfonyl-phenyl)-4-methyl-thiazol-2-ylcarbamoyl]-butyric acid cyclopentyl ester]
Ratio IC50 WB/enzyme (PI 3-Kinase) [1]: 0.15

COc1cc2c(Oc3ccc(NC(=O)c4ccccc4)cc3)ccnc2cc1OCC[C@H](N)C(=O)OC1CCCC1 [Compound (12), (S)-2-amino-4-[4-(4-benzoylamino-phenoxy)-6-methoxy-quinolin-7-yloxy]-butyric acid cyclopentyl ester]
Ratio IC50 cell/enzyme (Aurora kinase) (U937 cells): 0.0015

COc1cc2nccc(Oc3ccc(NC(=O)c4ccccc4)cc3)c2cc1OC [Compound (11), N-{4-(7-methoxy-6-methoxy-quinoline-4-yloxy)-phenyl}-benzamide, reference compound]
Ratio IC50 cell/enzyme (Aurora kinase) (U937 cells): 1.3

CC(C)(C)OC(=O)[C@@H](N)CCOc1cc(F)c(-n2c(N)c(C(=O)c3ccc(F)cc3F)ccc2=O)c(F)c1 [Compound (18), (S)-2-Amino-4-{4-[6-amino-5-(2,4-difluoro-benzoyl)-2-oxo-2H-pyridin-1-yl]-3,5-difluoro-phenoxy}-butyric acid tert-butyl ester]
Ratio IC50 WB/enzyme (P38 MAP kinase) [1]: 18

Cc1c(CNc2ccc(C(=O)NC(CC(C)C)C(=O)OC3CCCC3)cc2)cnc2nc(N)nc(N)c12 (stereo not drawn)
IC50 (recombinant human DHFR; [3]): 1700 nM
IC50 (recombinant human DHFR; [4]): 8 nM

COc1cc2c(Oc3ccc(NC(=O)c4ccccc4)cc3)ccnc2cc1OCC[C@H](N)C(=O)OC(C)(C)C [Compound (14), (S)-2-Amino-4-[4-(4-benzoylamino-phenoxy)-6-methoxy-quinolin-7-yloxy]-butyric acid tert-butyl ester]
Ratio IC50 cell/enzyme (Aurora kinase) (U937 cells): 0.025

Cc1c(CNc2ccc(C(=O)N[C@@H](CC(C)C)C(=O)OC3CCCC3)cc2)cnc2nc(N)nc(N)c12 [Compound (6), (S)-2-{4-[(2,4-Diamino-5-methyl-pyrido[2,3-d]pyrimidin-6-ylmethyl)-amino]-benzoylamino}-4-methyl-pentanoic acid cyclopentyl ester]
IC50 (recombinant human DHFR; [3]): 1700 nM
fold more potent in U937 cells than the unmodified analogue (2 G=N) (U937 cells; U937 cells, versus (2 G=N)): 100 fold
fold more potent in the HCT116 than the unmodified analogue (2 G=N) (HCT 116 cells; HCT116, versus (2 G=N)): 15 fold

Cc1c(CNc2ccc(C(=O)N[C@@H](CC(C)C)C(=O)O)cc2)cnc2nc(N)nc(N)c12 [Compound (19), (S)-2-(4-((2,4-diamino-5-methylpyrido[2,3-d]pyrimidin-6-yl)methylamino)benzamido)-4-methylpentanoic acid]
IC50 (recombinant human DHFR; [3]): 10 nM

Cc1c(CNc2ccc(CN[C@@H](CC(C)C)C(=O)OC3CCCC3)cc2)cnc2nc(N)nc(N)c12 [Compound (5), (S)-2-{4-[(2,4-Diamino-5-methyl-pyrido[2,3-d]pyrimidin-6-ylmethyl)-amino]-benzylamino}-4-methyl-pentanoic acid cyclopentyl ester]
selectivity between a monocytic and non-monocytic cell line (cell proliferation) (U937 cells): significantly more anti-proliferative in monocytic cell lines
cleavage of the ester in monocytic versus non-monocytic cell lines [2]: selective cleavage in monocytic but not non-monocytic cell lines

COc1cc(NCc2cnc3nc(N)nc(N)c3c2C)cc(OC)c1OC [Compound (2 G=N), 5-Methyl-6-((3,4,5-trimethoxyphenylamino)methyl)pyrido[2,3-d]pyrimidine-2,4-diamine, reference compound]
IC50 (recombinant human DHFR; [3]): 10 nM

Cc1c(CNc2ccc(OCCC(NC3CCCCC3)C(=O)OC3CCCC3)cc2)cnc2nc(N)nc(N)c12 (stereo not drawn)
IC50 (recombinant human DHFR; [3]): 1030 nM
IC50 (recombinant human DHFR; [4]): 25 nM
Ratio IC50 Cell/enzyme (HCT116), Table 2 (HCT 116 cells): 66

Cc1c(CNc2ccc(OCCC(N)C(=O)OC3CCCC3)cc2)cnc2nc(N)nc(N)c12 (stereo not drawn)
IC50 (recombinant human DHFR; [3]): 2700 nM
IC50 (recombinant human DHFR; [4]): 11 nM
Ratio IC50 Cell/enzyme (HCT116), Table 2 (HCT 116 cells): 14

CC(=O)Nc1nc(C)c(-c2ccc(Cl)c(S(C)(=O)=O)c2)s1 [Compound (20), N-[5-(4-Chloro-3-methanesulfonyl-phenyl)-4-methyl-thiazol-2-yl]-acetamide, reference compound]
Ratio IC50 WB/enzyme (PI 3-Kinase) [1]: 17

COc1cc(NCc2cnc3nc(N)nc(N)c3c2C)cc(OC)c1OC [drawing 10]
Ratio IC50 cell/enzyme (U937), Table 2 (U937 cells; U937 cell IC50 / DHFR enzyme IC50): 220
Ratio IC50 Cell/enzyme (HCT116), Table 2 (HCT 116 cells): 170

Nc1c(C(=O)c2ccc(F)cc2F)ccc(=O)n1-c1c(F)cccc1F [Compound (15), 6-Amino-5-(2,4-difluoro-benzoyl)-1-(2,6-difluoro-phenyl)-1H-pyridin-2-one, reference compound]
Ratio IC50 WB/enzyme (P38 MAP kinase) [1]: 6

Cc1nc(NC(=O)CC[C@H](N)C(=O)OC(C)(C)C)sc1-c1ccc(Cl)c(S(C)(=O)=O)c1 [Compound (23), (S)-2-Amino-4-[5-(4-chloro-3-methanesulfonyl-phenyl)-4-methyl-thiazol-2-ylcarbamoyl]-butyric acid tert-butyl ester]
Ratio IC50 WB/enzyme (PI 3-Kinase) [1]: 0.75

Cc1c(CNc2ccc(CNC(CC(C)C)C(=O)OC3CCCC3)cc2)cnc2nc(N)nc(N)c12 (stereo not drawn)
IC50 (recombinant human DHFR; [3]): 4000 nM
IC50 (recombinant human DHFR; [4]): 10 nM
Ratio IC50 Cell/enzyme (HCT116), Table 2 (HCT 116 cells): 17

Cc1c(CNc2ccc(OCC[C@H](NC3CCCCC3)C(=O)OC3CCCC3)cc2)cnc2nc(N)nc(N)c12 [Compound (4), (S)-2-Cyclohexylamino-4-{4-[(2,4-diamino-5-methyl-pyrido[2,3-d]pyrimidin-6-ylmethyl)-amino]-phenoxy}-butyric acid cyclopentyl ester]
selectivity between a monocytic and non-monocytic cell line (cell proliferation) (U937 cells): significantly more anti-proliferative in monocytic cell lines
cleavage of the ester in monocytic versus non-monocytic cell lines [2]: selective cleavage in monocytic but not non-monocytic cell lines
